Test results from paper PMC2771346 (Molecular microbiology, 2009).

Target: ObgE (Escherichia coli, UniProt P42641)
Test: inhibition of single-turnover GTP hydrolysis, TLC of gamma-32P-GTP
Assay type: biochemical

ObgE, sequence (P42641 whole entry): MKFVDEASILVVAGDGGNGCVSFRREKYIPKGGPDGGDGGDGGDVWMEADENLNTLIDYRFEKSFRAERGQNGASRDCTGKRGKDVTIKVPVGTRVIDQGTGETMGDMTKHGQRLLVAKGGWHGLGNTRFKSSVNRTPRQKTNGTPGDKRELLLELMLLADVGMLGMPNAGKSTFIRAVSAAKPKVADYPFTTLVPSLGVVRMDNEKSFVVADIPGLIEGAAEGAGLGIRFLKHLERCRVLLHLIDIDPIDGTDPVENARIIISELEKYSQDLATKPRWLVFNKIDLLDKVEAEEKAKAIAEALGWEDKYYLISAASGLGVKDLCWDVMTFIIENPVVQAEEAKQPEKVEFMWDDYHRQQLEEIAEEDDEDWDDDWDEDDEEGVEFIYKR

`Nc1nc2c(ncn2[C@@H]2O[C@H](COP(=O)(O)OP(=O)(O)O)[C@@H](O)[C@H]2O)c(=O)[nH]1` [GDP] showed a Ki of 1.6 ± 0.4 µM.
